Counter-ions that a name gives are not always drawn.
Assays:
[1] = system: human fibroblast cell lines; assay: Cytotoxicity, Hoechst test, human fibroblasts; conditions: read-out: IC50 Fibroblast; human fibroblasts, 48 hours incubation, Hoechst test
Protocol: (§1) The B16 F0, M4Beu and fibroblast lines are cultured in 75 cm^2 dishes comprising 12 ml of Eagle's essential medium with Earle's salts and Glutamax (Gibco-BRL, Paisley, Scotland) supplemented with 10% foetal calf serum, a solution of vitamins at 1× (Gibco), 1 mM sodium pyruvate (Gibco), a solution of nonessential amino acids at 1× (Gibco) and 4 μg/ml of gentamicin (antibiotic).
(§2) The cells are maintained at 37° C. in an incubator under an atmosphere comprising 5% CO2.
(§3) The cells (5×10^3) in 150 μl of culture medium are inoculated in 96-well plates (Nunclon™, Nunc, Roskilde, Denmark). […] The stock solutions (200×) are prepared with DMSO and are then stored at −20° C. 50 μl of a solution comprising stock solution and culture medium are subsequently added to the various wells (taking into account the different dilutions). Each test is carried out in triplicate.
(§4) The amount of cellular DNA is subsequently measured by the Hoechst test. […] The fluorescence obtained is measured using a Fluoroskan 96-well at the excitation wavelength at 360 nm and emission wavelength at 460 nm. Under these conditions, the fluorescence is proportional to the cell biomass in each well. The percentage of survival is defined by the fluorescence in each well (treated) with respect to the fluorescence of the control wells (drug-free), the blanks being subtracted (drug-free and cell-free wells).

human melanoma (M4Beu) = assay: Cytotoxicity, Hoechst test, M4Beu
Protocol: as §1, §2, §3, §4

murine melanoma (B16 F0) = assay: Cytotoxicity, Hoechst test, B16 F0; conditions: for IC50: read-out: IC50 B16, B16 F0 murine melanoma, 48 hours incubation, Hoechst test
Protocol: as §1, §2, §3
The amount of cellular DNA is subsequently measured by the Hoechst test. The plates are then defrosted at ambient temperature for 10 minutes. 100 μl of a 0.01% (w/v) solution of SDS (sodium dodecyl sulphate) in sterile distilled water are subsequently added using a microvolume dispenser. The plates (96 well) are incubated with stirring at ambient temperature for 30 minutes and are then frozen at −80° C. for one hour. The plates are subsequently defrosted at ambient temperature for 20 minutes. […] The plates are then incubated for one hour at ambient temperature, with stirring and with the exclusion of light. The fluorescence obtained is measured using a Fluoroskan 96-well at the excitation wavelength at 360 nm and emission wavelength at 460 nm. Under these conditions, the fluorescence is proportional to the cell biomass in each well. The percentage of survival is defined by the fluorescence in each well (treated) with respect to the fluorescence of the control wells (drug-free), the blanks being subtracted (drug-free and cell-free wells).

[2] = system: B16 F0 murine melanoma cells; assay: Colony forming technique: chemotherapeutic and radiotherapeutic (^125I) effects in vitro; assay type: cell-based; conditions: for % of inhibition (Radiotherapeutic effects alone): 125I-labelled, high specific activity
Protocol: The colony forming technique is involved, that is to say the growth of colonies of clones starting from tumour cells (B16 F0 murine melanoma cells) inoculated at a low concentration. This method makes it possible to visualize the cytotoxic and cytostatic properties of the compounds studied. The study was carried out in three parts:
The experiment is carried out on 6-well plates where 200 cells are inoculated in 2 ml of DMEM medium. After 20 hours, the medium is withdrawn and replaced with 2 ml of medium comprising the labelled compound at the desired concentration. This study is carried out in comparison with control wells comprising DMEM medium alone. […] The plates are incubated for 8 days and then the medium is withdrawn. The wells are rinsed with PBS and methanol is added for 3 minutes. Once attached, the cells are coloured with crystal violet with a contact time of 3 minutes. Subsequently, the colonies comprising more than 50 cells are counted using a dedicated counter. The growth of the treated colonies of cells is quantified in comparison with the controls. The activity of the product is expressed by a percentage of inhibition:
100−[(number of treated colonies)/(number of control colonies)]×100

[3] = system: melanoma grafted subcutaneously (B16 F0 cells); assay: Antitumour effectiveness by systemic administration after labelling with ^131I; assay type: in vivo, C57BL6 mice
Protocol: The study relates to 20 C57B16 mice bearing a melanoma grafted subcutaneously by injection of 50 000 B16 F0 cells (0.1 ml). On the 17th day, the animals are weighed and the tumours are measured in two dimensions (L, l), the tumour volume being expressed by L×l^2×½. On the 18th day (D18), the mice are divided into two groups, the labelled compound [^131I]-31 with a high specific activity is administered by the i.v. route (37 MBq; 0.2 ml) to 10 mice and 10 constitute the control batch. The monitoring of the animals is carried out with all the necessary radioprotection measures and in particular the removal of the contaminated bedding, the animals are weighed and the tumours are measured every two days. Taking into account the volume of the tumours and ethical considerations, the surviving animals were euthenized on the 20th day after injection, i.e. 38 days after the tumour graft. […] The evaluation of the effectiveness of an i.v. administration of [^131I]-31 on tumour growth of C57BL6 mice which have received a subcutaneous graft of B 16 melanoma 18 days before treatment is represented in FIG. 2. The times on the abscissa are given with respect to the day of inoculation of the tumours and with respect to the day of treatment.
The evaluation of the effectiveness of an i.v. administration of [^131I]-46 on tumour growth of C57BL6 mice which have received a subcutaneous graft of B 16 melanoma is represented in FIG. 3. The times on the abscissa are given with respect to the day of inoculation of the tumours and with respect to the first day of treatment. Under these conditions, the median of survival is extended and changes from 32 days for the control animals to 39 days for the treated animals. This experiment was repeated according to the same protocol and fully superimposable results were obtained.

[4] = system: grafted B16 F0 murine melanoma tumour; assay: Biodistribution of the ^125I-labelled molecules in the melanoma-bearing mouse (autoradiography of whole-body sections)
tumour = assay: Dosimetry with regard to the tumour (MIRD programme, extrapolated to ^131I); conditions: for Effective period: extrapolated to 131I labelling; for Biological period: from biodistribution data
[5] = single i.v. administration 37 MBq on D18 after graft, versus controls

Structure (SMILES): CN(C)CCNC(=O)c1cccc2cc3ccccc3nc12 [DACA, reference compound]
- IC50 [1]: 7100 nM
- IC50 (human melanoma (M4Beu); read-out: IC50 M4Beu, M4Beu human melanoma, 48 hours incubation, Hoechst test): 1800 nM
- IC50 (murine melanoma (B16 F0)): 190 nM

Structure (SMILES): CCN(CC)CCNC(=O)c1cccc2cc3cccc([125I])c3nc12.Cl.Cl [[^125I]-102, [^125I]-N-(2-diethylaminoethyl)-5-iodoacridine-4-carboxamide dihydrochloride]
- % of inhibition (Radiotherapeutic effects alone) ([2]; 1.39 kBq, 8.625 pM): 11%
- % of inhibition (Radiotherapeutic effects alone) ([2]; 2.78 kBq, 17.25 pM): 14.3%
- % of inhibition (Radiotherapeutic effects alone) ([2]; 5.55 kBq, 34.5 pM): 40.3%
- % of inhibition (Radiotherapeutic effects alone) ([2]; 11.1 kBq, 69 pM): 65.5%
- % of inhibition (Radiotherapeutic effects alone) ([2]; 16.7 kBq, 103.5 pM): 79%
- % of inhibition (Radiotherapeutic effects alone) ([2]; 22.2 kBq, […]): 96.1%
- Cumulative effect (% inhib) (Radiotherapeutic and chemotherapeutic effects) ([2]; cold compound 102 at 6.25 nM with [125I]-102 1.39 kBq): 30%
- Cumulative effect (% inhib) (Radiotherapeutic and chemotherapeutic effects) ([2]; cold compound 102 at 6.25 nM with [125I]-102 2.78 kBq): 37.5%
- Cumulative effect (% inhib) (Radiotherapeutic and chemotherapeutic effects) ([2]; cold compound 102 at 6.25 nM with [125I]-102 5.55 kBq): 59.5%
- Cumulative effect (% inhib) (Radiotherapeutic and chemotherapeutic effects) ([2]; cold compound 102 at 6.25 nM with [125I]-102 11.1 kBq): 76.5%
- Cumulative effect (% inhib) (Radiotherapeutic and chemotherapeutic effects) ([2]; cold compound 102 at 6.25 nM with [125I]-102 16.7 kBq): 89%

Structure (SMILES): CCN(CC)CCNC(=O)c1ccc2cc([131I])ccc2n1.Cl.Cl [[^131I]-31, [^131I]-N-(2-diethylaminoethyl)-6-iodoquinoline-2-carboxamide dihydrochloride]
- median of survival (in words) [3, 5]: a significant difference regarding the median of survival was not demonstrated
- tumour growth (in words) [3, 5]: markedly slowed down

Structure (SMILES): CCN(CC)CCNC(=O)c1cnc2cc([131I])ccc2n1.Cl [[^131I]-46, [^131I]-N-(2-diethylaminoethyl)-6-iodoquinoxaline-2-carboxamide hydrochloride]
- tumour growth (in words) ([3]; two doses of 18.5 MBq i.v., 6 and 10 days after induction of the tumours): clearly slowed down
- median of survival, treated animals ([3]; two doses of 18.5 MBq i.v., 6 and 10 days after induction of the tumours, control animals 32 days): 39 days

Structure (SMILES): COc1cc(NS(C)(=O)=O)ccc1Nc1c2ccccc2nc2ccccc12 [amsacrine, reference compound]
- IC50 (murine melanoma (B16 F0)): 35 nM

Structure (SMILES): CCN(CC)CCNC(=O)c1cccc2cc3cccc(I)c3nc12 [compound 102, N-(2-diethylaminoethyl)-5-iodoacridine-4-carboxamide dihydrochloride]
- Biodistribution, Mean, GB ([4]; 1 H): 281.34
- Biodistribution, Mean, GB ([4]; 6 H): 281.20
- Biodistribution, Mean, muscle ([4]; 1 H): 2.34
- Biodistribution, Mean, muscle ([4]; 3 H): 1.34
- Biodistribution, Mean, muscle ([4]; 6 H): 1.36
- Effective period (tumour): 35.4 h
- Biological period (tumour): 43.3 hours
- cytotoxic activity compared with DACA (in words) (murine melanoma (B16 F0); various cell lines studied (B16 F0, M4Beu, fibroblasts)): greater activity than the parent compound

Structure (SMILES): CCN(CC)CCNC(=O)c1cccc2c(Nc3ccc(NS(C)(=O)=O)cc3OC)c3cc(I)ccc3nc12 [compound 129, N-(2-diethylaminoethyl)-7-iodo-9-(4-methanesulphonamido-2-methoxyanilino)acridine-4-carboxamide dihydrochloride]
- Biodistribution, Mean, GB ([4]; 1 H): 20.19
- Biodistribution, Mean, GB ([4]; 6 H): 166.43
- Biodistribution, Mean, brain ([4]; 1 H): 0.12
- Biodistribution, Mean, brain ([4]; 3 H): 0.03
- Biodistribution, Mean, muscle ([4]; 3 H): 0.48
- Biodistribution, Mean, muscle ([4]; 6 H): 0.44
- Biodistribution, Mean, thyroid ([4]; thyroid, 6 H): 34.81
- Effective period (tumour): 88.3 h
- Biological period (tumour): 162.3 hours
- cytotoxic effectiveness (in words) (human melanoma (M4Beu); M4Beu human cells, compared with amsacrine): best effectiveness with regard to the M4Beu human cells, close to the values obtained for amscrine

— patent US20100061928A1, “LABELLED ANALOGUES OF HALOBENZAMIDES AS RADIOPHARMACEUTICALS” (Institut National De La Sante et De La Recherche Medicale …, priority 2006, published 2010)
